Assay results taken from publication PMC6009976, “Pharmacophore-based design and discovery of (−)-meptazinol carbamates as dual modulators of cholinesterase and amyloidogenesis” (Journal of Enzyme Inhibition and Medicinal Chemistry, 2017).
Like-named read-outs stand apart in the source and are kept apart here. Marks after values point to notes of the source that are not given here.

Legend:
[1] = target: T1, AChE (mice brain homogenate) (Mus musculus, UniProt P21836); assay: In vitro AChE inhibition assay (Ellman's method); type: biochemical; conditions: for Selectivity for AChE (IC50 for BChE divided by IC50 for AChE): mice serum BChE, (−)-meptazinol from values of ref 17
T1 construct: a solution of AChE (1:9 w/v homogenate in 0.1 M phosphate buffer (PB), pH 7.4); from tissue; host or cells: mouse brain homogenate
T1 sequence (P21836 32-614): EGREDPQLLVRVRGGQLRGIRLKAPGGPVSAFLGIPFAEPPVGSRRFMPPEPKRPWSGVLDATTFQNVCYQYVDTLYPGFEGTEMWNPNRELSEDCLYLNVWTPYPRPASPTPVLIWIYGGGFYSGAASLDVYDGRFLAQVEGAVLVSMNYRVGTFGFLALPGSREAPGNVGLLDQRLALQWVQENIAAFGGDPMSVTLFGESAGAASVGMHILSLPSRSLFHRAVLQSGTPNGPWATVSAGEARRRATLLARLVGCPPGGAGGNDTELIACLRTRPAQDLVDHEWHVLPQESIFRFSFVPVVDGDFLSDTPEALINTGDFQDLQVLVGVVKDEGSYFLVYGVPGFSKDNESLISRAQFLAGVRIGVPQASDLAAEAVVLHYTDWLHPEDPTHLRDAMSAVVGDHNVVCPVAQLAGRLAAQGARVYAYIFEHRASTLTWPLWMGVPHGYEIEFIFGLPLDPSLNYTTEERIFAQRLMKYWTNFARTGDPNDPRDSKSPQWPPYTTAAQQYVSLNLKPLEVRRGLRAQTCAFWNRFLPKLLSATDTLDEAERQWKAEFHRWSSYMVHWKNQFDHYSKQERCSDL
Protocol: (§1) Inhibitory activities of the compounds toward AChE and BChE were evaluated by Ellman’s method, employing mice brain homogenate as source of AChE and mice serum as source of BChE. […] After incubation for 20 min at 37 °C, Ellman’s reagent (300 µL, 5,5′-dithiobis(2-nitrobenzoic acid) (DTNB), 0.5 mM in 0.1 M PB, pH 7.4) and acetylthiocholine iodide (ATCh) (300 µL of 0.5 mM water solution) were added successively, and percent inhibition was determined by absorbance changes at 412 nm detected by UV spectrophotometry compared with control. BChE inhibition assay was similarly carried out using butyrylthiocholine iodide (BTCh) (0.5 mM) as the substrate and BChE (1:19 v/v serum in 0.1 M PB, pH 7.4) as the enzyme source.

[2] = target: T1, AChE (mice brain homogenate); conditions: cited from earlier work
[3] = cited from earlier work
[4] = target: T2, rHuAChE immobilized on EDA CIM disk (Homo sapiens, UniProt P22303); assay: Carbamoylation and decarbamoylation rate constants on AChE immobilized disk; type: biochemical; conditions: for Kd: inhibitor 50 and 100 nM; for Carbamoylation half-time: inhibitor 50 nM
T2 sequence (P22303 32-614): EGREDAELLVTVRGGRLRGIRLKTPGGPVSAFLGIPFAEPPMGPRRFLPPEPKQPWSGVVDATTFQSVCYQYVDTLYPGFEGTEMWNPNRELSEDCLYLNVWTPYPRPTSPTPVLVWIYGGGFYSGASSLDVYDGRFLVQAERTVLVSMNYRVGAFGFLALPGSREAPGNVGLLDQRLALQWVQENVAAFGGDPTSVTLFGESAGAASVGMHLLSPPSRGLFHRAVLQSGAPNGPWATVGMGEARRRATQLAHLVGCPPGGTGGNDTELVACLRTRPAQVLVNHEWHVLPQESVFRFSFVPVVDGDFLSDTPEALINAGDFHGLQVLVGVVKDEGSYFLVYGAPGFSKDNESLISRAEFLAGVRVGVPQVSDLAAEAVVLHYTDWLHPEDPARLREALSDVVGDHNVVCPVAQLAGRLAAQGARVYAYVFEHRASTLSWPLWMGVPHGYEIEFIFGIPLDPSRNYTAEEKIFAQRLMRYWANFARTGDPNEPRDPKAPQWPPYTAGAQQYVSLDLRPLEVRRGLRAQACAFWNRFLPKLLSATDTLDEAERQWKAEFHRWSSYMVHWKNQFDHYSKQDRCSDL
Protocol: The EDA CIM disk was first connected to a syringe pump and equilibrated with 10 column volumes (CV) of triple-distilled water and 10 CVs of 0.5 M Na-PB (pH 8.0). The flow rate was set at 0.5 mL/min. Then, the disk was activated by a 1% glutaraldehyde solution in PB (0.1 M, pH 7.4) (in the dark, 12 h, 4 °C). The activated disk was washed with 10 CVs of PB. 2 mL of rHuAChE in PB (10 U/mL) was then added into the column and left to react overnight (4 °C). The Schiff bases were reduced by 5 mL of 0.1 M sodium triacetoxyborohydride (STAB) in PB (2 h at room temperature) and 5 mL of 0.2 M monoethanolamine in PB (3 h at room temperature)[39]. The column was connected to the liquid chromatography system and equilibrated with a mobile phase consisting of 0.5 M NaCl and 10^−4 M DTNB in PB (buffer A) for 10 min. Reference enzyme activity was assessed by injecting 20 µL of saturating substrate (ATCh, 50 mM). The peak area was calculated and noted as A0. Then, the mobile phase was switched to the one containing selected concentrations of inhibitor (carbamoylation phase). Aliquots of 20 µL of saturating substrate were injected every 10–20 min and the time-dependent decreasing of peak area (Ai) was monitored down to a plateau. Once a constant plateau was reached, mobile phase was switched to buffer A again (decarbamoylation phase). Aliquots of substrate were kept injecting into the system to monitor the recovery of AChE activity over time. […] The experiment was carried out for two different concentrations of 42 and 43 (50 and 100 nM). The process of AChE carbamoylation and decarbamoylation is generally described as Scheme 1[40–42].
Calculation of ki and k3 was performed by applying Perola’s mathematical equation[43]. The affinity of the inhibitors toward the enzyme (KD) was calculated following Equation (1). (1) […]

[5] = target: T2, rHuAChE immobilized on EDA CIM disk; conditions: cited from earlier work
[6] = system: Aβ40/Aβ42 in SH-SY5Y-APP695 cells; conditions: 50 µM; cited from earlier work
[7] = system: APP in SH-SY5Y-APP695 cells; conditions: 50 µM; cited from earlier work
[8] = system: AChE from human erythrocytes; conditions: human erythrocyte AChE; read-out: IC50 ± SEM AChE; cited from earlier work
human serum BChE = conditions: read-out: IC50 ± SEM BChE; cited from earlier work
mice brain AChE = conditions: training set, read-out: Experimental IC50; cited from earlier work
rHuAChE = rHuAChE (Homo sapiens, UniProt P22303); assay: Determination of the enzyme kinetic parameters Km and Vmax; type: biochemical; conditions: for Type of AChE inhibition: Lineweaver–Burk plots, decreased Vmax, unvaried Km
rHuAChE, sequence (P22303 32-614): as above
Protocol: 10 µL inhibitors of different concentrations and 50 µL rHuAChE enzyme solution of 0.5 U/mL were mixed and incubated for 20 min, then 75 µL of DTNB solution and 100 µL of ATCh solution (concentration ranging from 0.057 mM to 0.2 mM) were added to the mixture. Enzyme activity was determined right after ATCh was added by modified Ellman’s spectrophotometrical method. The Km and Vmax values for AChE inhibition were calculated by regression analysis of Lineweaver–Burk plots (1/velocity versus 1/[substrate]).

[9] = system: APP in SH-SY5Y-APP695 cells; assay: Quantification of APP by high content screening; type: cell-based, human; conditions: 16 h; for Reduction of intracellular APP level: 50 µM
Protocol: (§2) Human neuroblastoma SH-SY5Y cells transfected with wild-type APP695 gene (SH-SY5Y-APP695)[44] of 5 × 10^4/well (SH-SY5Y-APP695 kindly provided by Prof. Shengdi Chen, Ruijin Hospital, Shanghai Jiao Tong University School of Medicine) were plated in 200 µL culture medium (DMEM/F12, 10% Fetal Bovine Serum, 300 µg/mL G418, 100 U/mL penicillin + 100 µg/mL streptomycin) and incubated for 48 h at 37 °C in 5% CO2. Compounds 42 and 43 dissolved in culture medium were applied to the cells and incubated at 37 °C in 5% CO2 for 16 h. The cells were fixed and permeabilized. Mouse anti-APP monoclonal antibody N-terminus (MAB348, CHEMICON) and Goat anti-Mouse IgG conjugated to Alexa Fluor 555 were used as primary antibody and secondary antibody to detect APP while Hoechst Dye was used to stain nucleus simultaneously. KineticScan HCS System was employed to automatically find, focus, image, and analyze the cells on double-fluorescence channel guided by Target Activation Bioapplication. Fluorescence Unit of APP versus that of nucleus was used to evaluate the expression of APP, in order to balance the background.

in vivo = conditions: both, Kunming, mouse, in vivo
Protocol: (§3) Acute toxicity was evaluated in mice of both sexes (20–25 g Kunming mice from experimental animal center of Shanghai Jiao Tong University School of Medicine). All animals were housed in plastic cages with food and water ad libitum and maintained on a 12/12 h light/dark cycle at 22 ± 1 °C. […] Compounds 42 and 43 were dissolved in a 1:10 propylene glycol-normal saline mixture at 0.1 mol/L and then diluted to the final stepwise concentrations with normal saline. Each concentration of the compound was orally or intraperitoneally administered to a group of 10 animals. After two weeks of observation, the lethal rate for each group was measured. A 95% confidence interval for 42 or 43 after oral or intraperitoneal administration was calculated by Bliss method.

Kunming mice = assay: in vivo; conditions: mice; as doses escalate
Protocol: as §3

BChE (mice serum) = target: T3, BChE (mice serum) (Mus musculus, UniProt Q03311); assay: In vitro BChE inhibition assay (Ellman's method); type: biochemical; conditions: read-out: IC50 ± SEM BChE
T3 construct: BChE (1:19 v/v serum in 0.1 M PB, pH 7.4) as the enzyme source; from tissue; host or cells: mouse serum
T3 sequence (Q03311 30-603): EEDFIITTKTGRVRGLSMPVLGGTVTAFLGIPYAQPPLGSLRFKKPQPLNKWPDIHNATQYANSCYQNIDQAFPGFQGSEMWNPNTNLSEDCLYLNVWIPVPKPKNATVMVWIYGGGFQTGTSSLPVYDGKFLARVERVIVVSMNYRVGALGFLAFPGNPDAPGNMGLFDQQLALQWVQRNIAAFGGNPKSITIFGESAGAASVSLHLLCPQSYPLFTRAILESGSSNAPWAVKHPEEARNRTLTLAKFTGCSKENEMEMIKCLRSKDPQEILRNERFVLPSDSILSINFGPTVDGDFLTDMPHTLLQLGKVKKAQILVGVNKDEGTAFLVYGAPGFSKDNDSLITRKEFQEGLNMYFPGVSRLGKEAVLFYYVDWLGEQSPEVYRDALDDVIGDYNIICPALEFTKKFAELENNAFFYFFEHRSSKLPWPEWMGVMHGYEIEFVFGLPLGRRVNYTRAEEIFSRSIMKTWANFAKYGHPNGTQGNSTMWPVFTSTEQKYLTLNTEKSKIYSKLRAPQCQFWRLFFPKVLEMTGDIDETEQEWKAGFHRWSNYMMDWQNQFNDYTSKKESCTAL
Protocol: as §1

[10] = system: Aβ40/Aβ42 in SH-SY5Y-APP695 cells; assay: Quantification of Aβ40/Aβ42 by ELISA in cell culture medium; type: cell-based, human; conditions: for Reduction of Aβ42 level / Level of Aβ40: 50 µM; for Level of Aβ40: data not shown
Protocol: as §2
The cell culture medium was collected and added with phenylmethylsulfonyl fluoride (PMSF) to the final concentration of 0.1%. The concentration of Aβ40/Aβ42 in the medium was measured by Human/Rat βAmyloid (40/42) ELISA Kit Wako and calculated according to the standard line.

[11] = reference compound to verify the disk
[12] = dissociation (decarbamoylation) constant, Mean ± SD, n = 6
[13] = inhibit (carbamoylation) constant, Mean ± SD, n = 6

Compound	Selectivity for AChE (IC50 for BChE divided by IC50 for AChE) ([1]; mice brain AChE)	LD50 ([3]; p.o.)	Type of AChE inhibition (rHuAChE)	IC50 [1] [nM]	Fold increase in inhibition of mice brain AChE compared with (−)-meptazinol ([1]; mice brain AChE)	Reduction of intracellular APP level [9] [%]	Kd ([4]; Mean ± SD, n = 6) [nM]	k3 [4, 12]	ki [4, 13]	Carbamoylation half-time [4] [min]	LD50 (in vivo; ip) [mg/kg]	LD50 (in vivo; po) [mg/kg]	Peripheral cholinergic side effects observed (Kunming mice)	IC50 (BChE (mice serum)) [nM]	Reduction of Aβ42 level ([10]; 16 h) [%]	Level of Aβ40 [10]	also measured
CC[C@@]1(c2cccc(O)c2)CCCCN(C)C1 [(−)-Meptazinol]	0.37	–	–	–	–	–	–	–	–	–	–	–	–	–	–	–	IC50 [2]: 41000 nM
CNC(=O)Oc1ccc2c(c1)[C@]1(C)CCN(C)[C@@H]1N2C [Compound 1, (3aS)-(−)-physostigmine]	–	4.5 (p.o.)^h mg/kg	–	–	–	–	–	–	–	–	–	–	–	–	–	–	k3 [4, 11]: (1.94 ± 0.36) × 10^−2 min^−1; ki [4, 11]: (4.78 ± 1.13) × 10^5 M^−1 min^−1; Carbamoylation half-time [5]: 3.9 min
CN1CC[C@@]2(C)c3cc(OC(=O)Nc4ccccc4)ccc3N(C)[C@@H]12 [Compound 5, Phenserine]	–	–	–	–	–	–	–	–	–	–	–	–	–	–	–	–	LD50 ([3]; i.p.): 25 (i.p.)^i mg/kg; Decrease of total Aβ [6]: 31%; Decrease of APP level [7]: 40%; IC50 [8]: 24 ± 6 nM; IC50 (human serum BChE): 1300 ± 85 nM
CC[C@@]1(c2cccc(OC(=O)N(C)C)c2)CCCCN(C)C1 [Compound 42, (S)-3-(3-ethyl-1-methylazepan-3-yl)phenyl dimethylcarbamate]	0.46	–	uncompetitive inhibition	6.93 ± 2.45	5900	23.5	30.2	(1.35 ± 0.31) × 10^−2 min^−1	(4.47 ± 1.21) × 10^5 M^−1min^−1	23.5	1.4	12	salivation, twitch, and incontinence	3.17 ± 1.34	34.0	unchanged	Decrease of Vmax (rHuAChE; inhibitor 100 nM): 18%; Vmax-app (rHuAChE; inhibitor 100 nM): 28.73 µM/min; Decrease of Vmax (rHuAChE; inhibitor 250 nM): 29%; Vmax-app (rHuAChE; inhibitor 250 nM): 24.70 µM/min; AChE inhibitory potency relative to rivastigmine (times more potent) ([1]; mice brain AChE): about 790
CC[C@@]1(c2cccc(OC(=O)Nc3ccccc3)c2)CCCCN(C)C1 [Compound 43, (S)-3-(3-ethyl-1-methylazepan-3-yl)phenyl phenylcarbamate]	2.1	–	uncompetitive inhibition	31.6 ± 3.5	1300	26.9	108	(2.18 ± 0.12) × 10^−2 min^−1	(2.12 ± 0.46) × 10^5 M^−1min^−1	20.3	45	73	salivation, twitch, and incontinence	67.1 ± 23.7	51.9	unchanged	Decrease of Vmax (rHuAChE; inhibitor 25 nM): 10%; Vmax-app (rHuAChE; inhibitor 25 nM): 17.84 µM/min; Decrease of Vmax (rHuAChE; inhibitor 50 nM): 25%; Vmax-app (rHuAChE; inhibitor 50 nM): 14.94 µM/min; Times less potent than phenserine in AChE inhibition ([1]; against phenserine value of ref 22): 1.3; Decrease of APP level ([9]; 5 µM): 20.0%; Decrease of Aβ42 level ([10]; 5 µM, 16 h): 30.5%
